US8461178B2, “Naphthyridine derivatives and the use thereof as kinase inhibitors” (Aeterna Zentaris GmbH, priority 2009, dated 2013)
Read-outs that look alike come from different tables or passages of the source.

Tests used:
[1] = molecular target: T1, Erk2 (Homo sapiens, UniProt P28482); assay: Cell-free kinase assay (ALPHA technology), Erk2; type: biochemical; details: for IC50: at 10 μM ATP
T1 construct: in some cases as full-length kinases, in some cases as truncated fragments
Description: (§1) The controls were determined 16 fold. 0% controls contained no ATP whereas the 100% controls contained no test substance. The IC50 values were determined with GraphPadPrism.

[2] = molecular target: T2, Aurora-B (Homo sapiens, UniProt Q96GD4); assay: Cell-free kinase assay (ALPHA technology), Aurora-B; type: biochemical
T2 construct: in some cases as full-length kinases, in some cases as truncated fragments; purchased Upstate/Millipore #14-835
T2 sequence (Q96GD4 whole entry, the tested form may be a part): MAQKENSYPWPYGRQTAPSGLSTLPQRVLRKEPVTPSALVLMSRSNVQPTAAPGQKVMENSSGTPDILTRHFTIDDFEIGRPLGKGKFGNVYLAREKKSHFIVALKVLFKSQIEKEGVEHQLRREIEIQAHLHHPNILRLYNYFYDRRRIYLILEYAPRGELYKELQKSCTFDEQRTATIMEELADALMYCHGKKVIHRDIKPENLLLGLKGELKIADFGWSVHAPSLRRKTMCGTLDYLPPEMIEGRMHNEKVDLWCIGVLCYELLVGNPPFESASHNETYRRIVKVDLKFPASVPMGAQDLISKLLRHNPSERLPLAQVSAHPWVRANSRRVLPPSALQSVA
Description: The kinase reaction was stopped by adding 10 μl of the ALPHA bead mix (10 μg/ml, #6760617/PerkinElmer), pre-incubated with anti-phospho PLK antibody (100 pM, #5070, Cell Signaling), in 25 mM Tris, 200 mM NaCl, 100 mM EDTA and 0.3% BSA, and left to stand overnight. The luminiscence was detected the next morning in a Envision instrument (Perkin Elmer). […] 0% controls contained no ATP whereas the 100% controls contained no test substance. The IC50 values were determined with GraphPadPrism.

[3] = molecular target: cRaf-Mek1-Erk2 (Homo sapiens, UniProt P04049+P28482+Q02750); details: read-out: IC50 cRaf-Mek-Erk; at 10 μM ATP
Chain of cRaf-Mek1-Erk2 (P04049 whole entry, the tested form may be a part): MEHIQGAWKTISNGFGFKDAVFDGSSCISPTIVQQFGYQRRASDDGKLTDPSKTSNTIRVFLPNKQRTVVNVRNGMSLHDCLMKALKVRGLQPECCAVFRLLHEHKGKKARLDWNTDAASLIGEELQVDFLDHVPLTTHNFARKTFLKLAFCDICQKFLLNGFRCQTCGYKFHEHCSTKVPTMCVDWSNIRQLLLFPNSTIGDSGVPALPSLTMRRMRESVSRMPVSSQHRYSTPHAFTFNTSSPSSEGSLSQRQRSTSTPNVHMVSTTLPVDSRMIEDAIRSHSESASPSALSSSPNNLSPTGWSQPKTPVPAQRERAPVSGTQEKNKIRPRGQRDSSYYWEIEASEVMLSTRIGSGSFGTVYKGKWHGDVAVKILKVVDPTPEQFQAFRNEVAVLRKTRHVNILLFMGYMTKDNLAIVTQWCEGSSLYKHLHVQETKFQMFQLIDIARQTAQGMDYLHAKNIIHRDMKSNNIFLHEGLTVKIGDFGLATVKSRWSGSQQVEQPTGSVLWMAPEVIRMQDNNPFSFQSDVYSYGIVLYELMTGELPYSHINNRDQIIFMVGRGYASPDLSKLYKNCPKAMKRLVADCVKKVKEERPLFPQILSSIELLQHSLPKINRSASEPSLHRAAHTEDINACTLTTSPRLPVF
Chain of cRaf-Mek1-Erk2 (Q02750 whole entry, the tested form may be a part): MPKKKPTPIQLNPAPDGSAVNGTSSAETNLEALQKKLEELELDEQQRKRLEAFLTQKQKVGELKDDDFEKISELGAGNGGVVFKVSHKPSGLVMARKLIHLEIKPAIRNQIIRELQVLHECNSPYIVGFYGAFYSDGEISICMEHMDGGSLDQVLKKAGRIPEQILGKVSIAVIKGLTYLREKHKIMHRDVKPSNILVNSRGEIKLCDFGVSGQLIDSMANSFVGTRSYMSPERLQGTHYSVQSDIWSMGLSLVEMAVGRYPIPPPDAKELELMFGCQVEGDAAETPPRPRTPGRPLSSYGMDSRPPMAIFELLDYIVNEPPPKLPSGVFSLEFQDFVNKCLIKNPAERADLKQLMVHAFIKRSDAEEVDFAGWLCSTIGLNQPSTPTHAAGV
Chain of cRaf-Mek1-Erk2 (P28482 2-360): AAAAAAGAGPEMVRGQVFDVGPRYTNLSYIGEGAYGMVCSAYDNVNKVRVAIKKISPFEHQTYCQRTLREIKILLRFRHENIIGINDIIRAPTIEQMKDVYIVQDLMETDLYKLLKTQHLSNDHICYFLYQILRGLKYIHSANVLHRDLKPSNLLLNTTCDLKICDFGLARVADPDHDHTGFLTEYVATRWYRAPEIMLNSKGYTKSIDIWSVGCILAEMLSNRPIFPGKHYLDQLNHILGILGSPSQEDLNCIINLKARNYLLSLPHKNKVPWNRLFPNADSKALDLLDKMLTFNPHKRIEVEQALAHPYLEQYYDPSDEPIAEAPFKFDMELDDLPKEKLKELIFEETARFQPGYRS
Description: The inhibitory effect of the inventive compounds was tested on various human serine/threonine kinases and tyrosine kinases in enzymatic assays. Recombinant human kinases, for example Aurora-B, cRaf-Mek1-Erk2, Erk2, Pim-1, HIPK1, KDR, TrkA, Yes, c-Abl and others were used, in some cases as full-length kinases, in some cases as truncated fragments—but at least consisting of the functional kinase domains. The commercial kinase proteins (Proqinase, Millipore) were used as recombinant fusion proteins with GST (glutathione S-transferase) tag or His tag. Depending on the substrate type, the different kinase reactions were quantified by suitable ALPHA™ beads (PerkinElmer).
The calculation of % inhibition values per substance concentration was done by means of the following formula from the raw data determined in the Envision reader:
as §1

[4] = at 10 μM ATP, read-out: IC50 Aurora-B
[5] = read-out: IC50 values against Aurora-B

T1 sequence (P28482 whole entry, the tested form may be a part): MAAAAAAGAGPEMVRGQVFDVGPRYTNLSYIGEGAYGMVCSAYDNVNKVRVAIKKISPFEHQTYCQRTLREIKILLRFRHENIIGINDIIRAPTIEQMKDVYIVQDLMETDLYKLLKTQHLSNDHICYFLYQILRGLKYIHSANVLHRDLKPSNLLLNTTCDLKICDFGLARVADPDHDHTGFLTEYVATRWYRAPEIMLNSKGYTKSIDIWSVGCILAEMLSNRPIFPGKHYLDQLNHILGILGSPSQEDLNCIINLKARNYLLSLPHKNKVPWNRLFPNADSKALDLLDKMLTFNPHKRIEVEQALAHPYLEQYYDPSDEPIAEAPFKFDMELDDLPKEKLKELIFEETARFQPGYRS

Row | SMILES | IC50 [1] [µM] | IC50 [2, 4] [µM] | IC50 [2, 5] [µM] | IC50 [3] [µM] | melting point [°C] | dual activity against Aurora-B and Erk2 (or cRaf-Mek-Erk cascade respectively) ([1]; in words)
1 | CCCNC(=O)Nc1ccnc2cc(-c3cnn(C)c3)cnc12 [Compound 19, 1-[7-(1-Methyl-1H-pyrazol-4-yl)-[1,5]naphthyridin-4-yl]-3-propyl-urea] | > 100 | 0.026 | < 0.1 | 9.74 | 216 to 217 | –
2 | Cn1cc(-c2cnc3c(NC(=O)NC4CC4)ccnc3c2)cn1 [Compound 18, 1-Cyclopropyl-3-[7-(1-methyl-1H-pyrazol-4-yl)-[1,5]naphthyridin-4-yl]-urea] | > 100 | 0.013 | < 0.1 | 7.45 | 223 to 224 | –
3 | CCNC(=O)Nc1ccnc2cc(-c3ccc(O)c(OC)c3)cnc12 [Compound 9, 1-Ethyl-3-[7-(4-hydroxy-3-methoxy-phenyl)-[1,5]naphthyridin-4-yl]-urea] | ~100 | 0.37 | – | > 31.6 | 202 to 203 | –
4 | O=C(Nc1ccnc2cc(-c3ccc4[nH]ccc4c3)cnc12)NC1CC1 [Compound 40, 1-Cyclopropyl-3-[7-(1H-indol-5-yl)-[1,5]naphthyridin-4-yl]-urea] | > 100 | 2.12 | – | > 100 | 214 to 215 | –
5 | Cn1cc(-c2cnc3c(NC(=O)NC(C)(C)C)ccnc3c2)cn1 [Compound 11, 1-tert-Butyl-3-[7-(1-methyl-1H-pyrazol-4-yl)-[1,5]naphthyridin-4-yl]-urea] | > 31.6 | 0.112 | – | 12.6 | 215 to 216 | –
6 | COc1cc(-c2cnc3c(NC(=O)NC4CC4)ccnc3c2)ccc1O [Compound 14, 1-Cyclopropyl-3-[7-(4-hydroxy-3-methoxy-phenyl)-[1,5]naphthyridin-4-yl]-urea] | > 100 | 0.108 | – | 18.1 | 235 to 236 | –
7 | O=C(Nc1ccnc2cc(-c3ccccc3)cnc12)NC1CC1 [Compound 39, 1-Cyclopropyl-3-(7-phenyl-[1,5]naphthyridin-4-yl)-urea] | > 100 | 0.889 | – | 20.3 | 188 to 190 | –
8 | O=C(Nc1ccnc2cc(-c3ccnc(F)c3)cnc12)NC1CC1 [Compound 37, 1-Cyclopropyl-3-[7-(2-fluoro-pyridin-4-yl)-[1,5]naphthyridin-4-yl]-urea] | > 100 | 0.935 | – | 10.3 | 226 to 229 | –
9 | CCCCCCNC(=O)Nc1ccnc2cc(-c3cnn(C)c3)cnc12 [Compound 25, 1-Hexyl-3-[7-(1-methyl-1H-pyrazol-4-yl)-[1,5]naphthyridin-4-yl]-urea] | > 100 | 0.885 | – | > 100 | 188 to 189 | –
10 | O=C(Nc1ccnc2cc(-c3cn[nH]c3)cnc12)NC1CC1 [Compound 35, 1-Cyclopropyl-3-[7-(1H-pyrazol-4-yl)-[1,5]naphthyridin-4-yl]-urea] | > 100 | 0.085 | – | 4.65 | 229 to 231 | –
11 | Cn1cc(-c2cnc3ccc(NC(=O)NCCc4ccccc4)nc3c2)cn1 [Compound 5, 1-[7-(1-Methyl-1H-pyrazol-4-yl)-[1,5]naphthyridin-2-yl]-3-phenethyl-urea] | 0.733 | 0.171 | – | 0.008 | 237 to 238 | dual activity
12 | CCCCNC(=O)Nc1ccnc2cc(-c3cnn(C)c3)cnc12 [Compound 32, 1-Butyl-3-[7-(1-methyl-1H-pyrazol-4-yl)-[1,5]naphthyridin-4-yl]-urea] | > 31.6 | 0.164 | – | 12.8 | 219 to 220 | –
